# Laboratory results reported in US20130023574A1, “METHOD FOR GENERATING DATA SET FOR INTEGRATED PROTEOMICS, INTEGRATED PROTEOMICS METHOD USING DATA SET FOR INTEGRATED PROTEOMICS THAT IS GENERATED BY THE GENERATION METHOD, AND METHOD FOR IDENTIFYING CAUSATIVE SUBSTANCE USING SAME” (National University Corporation Kumamoto University, priority 2010, published 2013).
# Columns and labels:
# [1] = system: U373 cells; assay: Chemoresistance to TMZ (rate of living cells, absorbance) in glioma cell line U373; format: cell-based, human
# Experimental: The experiment was carried out by inoculating the glioma cell line on a 96-well plate at the rate of 100 cells per well and adding TMZ at varying concentration ranging from 0 to 20 μM to each well after 5 hours of inoculation. After the plate was incubated for 6 days, absorbance at 450 nm was measured […]. The rate of living cells was expressed by percentage (%) at the defined concentrations of TMZ by setting the concentration rate of 0 μM as a control and as a standard rate of the living cells at the respective TMZ concentrations. […] In other words, it was found in the glioma cell line that the chemoresistance was increased to a higher extent as the variation expression amounts of vimentin were higher.
# This experiment was implemented by inoculating a 6-well plate with glioma cells at the rate of 10^6 cells per well, followed by introduction of a vimentin siRNA or a control siRNA into the cells using lipofectamin 2000 after 24 hours of inoculation. […] After the plate was incubated for 6 days, absorbance at 450 nm was measured […]. […]
# This experiment was implemented to investigate an influence of the PAK1-induced vimentin phosphorylation on the sensitivity to anticancer agents in the glioma cell line. […] After incubation for 6 days, the portion having absorbance at 420 nm was measured […]. The rate of living cells was expressed by percentage (%) at every set TMZ concentration by setting the TMZ concentration of 0 μM and absorbance for the stimulation with the PAK inhibitor as a standard living cell rate for the respective TMZ concentrations. […]
# This experiment was carried out by inoculating a 96-well plate with the glioma cell line at the rate of 100 cells per well, followed by stimulation with 1 μM of Calpi or 1 μM of A23187 after 5 hours of inoculation and addition of TMZ at concentrations varying from 0 μM to 40 μM. After the glioma cell line was incubated for 6 days, the portion having absorbance at 420 nm was measured. […]
# [2] = system: calpain; assay: Fragmentation of vimentin in glioma cell line U373 by Western blotting; format: cell-based, human
# From the text: In this experiment, calpain was activated A23187 (a calcium ionophor). After the glioma cell line U373 was stimulated with the calpain inhibitor and then confirmed by Western blotting. […] Therefore, it was confirmed that vimentin is cleaved with calpain.
# It is known that, although the N-terminal serine residue of group A can be acetylated, the N-terminal amino acid sequence of the vimentin fragments of groups B, C and D, respectively, can be cleaved by calpain (FIGS. 41d, 45). Therefore, in order to confirm the phosphorylation of vimentin and the cleavage of the N-terminal vimentin with PAK1 and calpain, respectively, a pattern of the vimentin spots with GFP-vimentin (1-464.aa full length) overexpressed in the U373 glioma cell line was analyzed by 2D Western blotting using an anti-C-terminal vimentin antibody. […] Further, the particular fragmentation of vimentin was suppressed with the calpain inhibitor (FIG. 27).
SMILES,"resistance to anticancer agents (rate of living cells) ([1]; U373 cells, 1 μM A23187, TMZ 20 and 40 μM, 6 days, vs control)",fragmentation of vimentin [2],"medicine resistance of the U373 glioma cells ([1]; FIG. 33, stimulation plus TMZ)","sensitivity to anticancer agents (rate of living cells) ([1]; glioma cell line, 3 μg/ml ephrin A1 or 30 μM serotonin, TMZ 5, 10, 20 and 40 μM, 6 days, vs control)"
CNc1ccc2oc(C[C@H]3O[C@@]4(CC[C@H]3C)O[C@H]([C@H](C)C(=O)c3ccc[nH]3)[C@H](C)C[C@H]4C)nc2c1C(=O)O [A23187],upregulated the resistance to anticancer agents significantly,enhanced the fragmentation,,
NCCc1c[nH]c2ccc(O)cc12 [serotonin],,,upregulated the medicine resistance,upregulated
